What was measured:
[1] = test system: beet armyworm (BAW; Spodoptera exigua: Lepidoptera); assay: 96-well microtiter plate-based high throughput (HTS) diet bioassay on beet armyworm (BAW HTS); assay type: in vivo; settings: BAW eggs, 12 μg test compound per well, mortality at 6 d post-treatment, mortality class
Protocol: (§1) Bioassays on beet armyworm (BAW; Spodoptera exigua: Lepidoptera) were conducted using either a 96-well microtiter plate-based high throughput (HTS) bioassay or a 128-well diet tray assay. The HTS assay is a based on a modification of Lewer et al. J. Nat. Prod. 2006, 69, 1506. BAW eggs of were placed on top of artificial diet (100 μl) in each well of 96-well microtiter plate. The diet was pretreated with test compounds (12 μg dissolved in 30 μL of DMSO-acetone-water mixture) layered on top of the diet using a liquid handling system and then allowed to dry for several hours. Infested plates were then covered with a layer of sterile cotton batting and the plate lid, and then held in the dark at 29° C. Mortality was recoded at 6 d post-treatment. Each plate had six replicates. The percent mortality was calculated from the average of the six replicates. In the case of the 128-well diet assay, three to five second instar BAW larvae were placed in each well (3 mL) of the diet tray that had been previously filled with 1 mL of artificial diet to which 50 μg/cm^2 of the test compound (dissolved in 50 μL of 90:10 acetone-water mixture) had been applied (to each of eight wells) and then allowed to dry. Trays were covered with a clear self-adhesive cover, and held at 25° C., 14:10 light-dark for six days. Percent mortality was recorded for the larvae in each well; activity in the eight wells was then averaged. In Table 7, under the BAW HTS or BAW 50 heading, an “A” means that the compound was tested and at least 50 percent mortality was observed whereas, “B” means that either (1) the compound was tested and less than 50 percent mortality was observed or (2) the compound was not tested.

[2] = test system: beet armyworm (BAW; Spodoptera exigua: Lepidoptera); assay: 128-well diet tray assay on beet armyworm (BAW 50); assay type: in vivo
Protocol: as §1

[3] = 96-well microtiter plate HTS diet assay
[4] = 128-well diet tray assay; 50 μg/cm^2 of test compound on diet; second instar BAW larvae; mortality class
[5] = 128-well diet tray assay, second instar BAW larvae, 50 μg/cm^2 of test compound on diet; mortality class

Compound	BAW HTS ([1]; 96-well HTS diet bioassay)	BAW HTS [1, 3]	BAW 50 ug/cm2 [2, 4]	BAW HTS ([1]; 96-well HTS diet assay)	BAW 50 ug/cm2 [2, 5]
CCC(O)c1ccc(-n2ccc(-c3ccc(C=NOC4OC(C)C(OC)C(OC)C4OC)cc3)n2)cc1 (mixture of isomers) [Compound 5]	B (either (1) the compound was tested and less than 50 percent mortality was observed or (2) the compound was not tested)	B (either (1) the compound was tested and less than 50 percent mortality was observed or (2) the compound was not tested)	A (the compound was tested and at least 50 percent mortality was observed)	–	–
CCOC(=O)C1CC(c2ccc(C=NOC3OC(C)C(OC)C(OC)C3OC)cc2)=NN1c1ccc(OC(F)(F)F)cc1 (mixture of isomers) [Compound 13]	B (either (1) the compound was tested and less than 50 percent mortality was observed or (2) the compound was not tested)	B (either (1) the compound was tested and less than 50 percent mortality was observed or (2) the compound was not tested)	A (the compound was tested and at least 50 percent mortality was observed)	–	–
COC1C(C)OC(ON=Cc2ccc(C3=NN(c4ccc(OC(F)(F)F)cc4)C(C(=O)OCC(C)C)C3)cc2)C(OC)C1OC (mixture of isomers) [Compound 14]	B (either (1) the compound was tested and less than 50 percent mortality was observed or (2) the compound was not tested)	B (either (1) the compound was tested and less than 50 percent mortality was observed or (2) the compound was not tested)	B (either (1) the compound was tested and less than 50 percent mortality was observed or (2) the compound was not tested)	–	–
CCOC1C(OC)C(C)OC(ON=Cc2ccc(C3NC(c4ccc(OC(F)(F)F)cc4)=NO3)cc2)C1OC (mixture of isomers) [Compound 130]	A (the compound was tested and at least 50 percent mortality was observed)	A (the compound was tested and at least 50 percent mortality was observed)	A (the compound was tested and at least 50 percent mortality was observed)	–	–
CCOC1C(OC)C(C)OC(OC(=O)Nc2ccc(C3=NN(c4ccc(OC(F)(F)C(F)(F)F)cc4)CC3CN(C)C)cc2)C1OC (mixture of isomers) [Compound 180]	–	B (either (1) the compound was tested and less than 50 percent mortality was observed or (2) the compound was not tested)	A (the compound was tested and at least 50 percent mortality was observed)	B (either (1) the compound was tested and less than 50 percent mortality was observed or (2) the compound was not tested)	–
COC1CC(OC(=O)Nc2ccc(-c3ncn(-c4ccc(OC(F)(F)C(F)(F)F)cc4)n3)cc2)OC(C)C1O (mixture of isomers) [Compound 244]	–	B (either (1) the compound was tested and less than 50 percent mortality was observed or (2) the compound was not tested)	A (the compound was tested and at least 50 percent mortality was observed)	B (either (1) the compound was tested and less than 50 percent mortality was observed or (2) the compound was not tested)	–
CCOC1C(OC)C(C)OC(OC(=O)Nc2ccc(C3=NC(c4ccc(OC(F)(F)F)cc4)CO3)cc2)C1OC (mixture of isomers) [Compound 247]	–	B (either (1) the compound was tested and less than 50 percent mortality was observed or (2) the compound was not tested)	A (the compound was tested and at least 50 percent mortality was observed)	B (either (1) the compound was tested and less than 50 percent mortality was observed or (2) the compound was not tested)	–
COc1cccc(-c2cnn(-c3ccc(C=NOC4OC(C)C(OC)C(OC)C4OC)cc3)c2)c1 (stereo not drawn) [Compound 1]	A (the compound was tested and at least 50 percent mortality was observed)	–	–	A (the compound was tested and at least 50 percent mortality was observed)	B (either (1) the compound was tested and less than 50 percent mortality was observed or (2) the compound was not tested)
COC1C(C)OC(ON=Cc2ccc(-n3ccc(-c4ccc(Cl)cc4)n3)cc2)C(OC)C1OC (stereo not drawn) [Compound 2]	A (the compound was tested and at least 50 percent mortality was observed)	–	–	A (the compound was tested and at least 50 percent mortality was observed)	B (either (1) the compound was tested and less than 50 percent mortality was observed or (2) the compound was not tested)
COC1C(C)OC(ON=Cc2ccc(-n3ccc(-c4ccccn4)n3)cc2)C(OC)C1OC (stereo not drawn) [Compound 3]	A (the compound was tested and at least 50 percent mortality was observed)	–	–	A (the compound was tested and at least 50 percent mortality was observed)	B (either (1) the compound was tested and less than 50 percent mortality was observed or (2) the compound was not tested)
COC1C(C)OC(ON=Cc2ccc(-n3ccc(-c4cccs4)n3)cc2)C(OC)C1OC (stereo not drawn) [Compound 4]	B (either (1) the compound was tested and less than 50 percent mortality was observed or (2) the compound was not tested)	–	–	B (either (1) the compound was tested and less than 50 percent mortality was observed or (2) the compound was not tested)	B (either (1) the compound was tested and less than 50 percent mortality was observed or (2) the compound was not tested)
COC1C(C)OC(ON=Cc2ccc(-c3ccn(-c4ccc(SC(F)(F)F)cc4)n3)cc2)C(OC)C1OC (stereo not drawn) [Compound 6]	B (either (1) the compound was tested and less than 50 percent mortality was observed or (2) the compound was not tested)	B (either (1) the compound was tested and less than 50 percent mortality was observed or (2) the compound was not tested)	A (the compound was tested and at least 50 percent mortality was observed)	–	–
COC1C(C)OC(ON=Cc2ccc(-c3ccn(-c4ccc(OC(F)(F)C(F)F)cc4)n3)cc2)C(OC)C1OC (stereo not drawn) [Compound 7]	B (either (1) the compound was tested and less than 50 percent mortality was observed or (2) the compound was not tested)	B (either (1) the compound was tested and less than 50 percent mortality was observed or (2) the compound was not tested)	A (the compound was tested and at least 50 percent mortality was observed)	–	–
COC1C(C)OC(ON=Cc2ccc(-c3ccn(-c4ccc(OC(F)(F)C(F)(F)F)cc4)n3)cc2)C(OC)C1OC (stereo not drawn) [Compound 8]	B (either (1) the compound was tested and less than 50 percent mortality was observed or (2) the compound was not tested)	B (either (1) the compound was tested and less than 50 percent mortality was observed or (2) the compound was not tested)	A (the compound was tested and at least 50 percent mortality was observed)	–	–
COC1C(C)OC(ON=Cc2ccc(-c3ccn(-c4ccc(SC)cc4)n3)cc2)C(OC)C1OC (stereo not drawn) [Compound 9]	B (either (1) the compound was tested and less than 50 percent mortality was observed or (2) the compound was not tested)	B (either (1) the compound was tested and less than 50 percent mortality was observed or (2) the compound was not tested)	A (the compound was tested and at least 50 percent mortality was observed)	–	–
COC1C(C)OC(ON=Cc2ccc(-c3ccn(-c4ccc(C(C)C)cc4)n3)cc2)C(OC)C1OC (stereo not drawn) [Compound 10]	B (either (1) the compound was tested and less than 50 percent mortality was observed or (2) the compound was not tested)	B (either (1) the compound was tested and less than 50 percent mortality was observed or (2) the compound was not tested)	A (the compound was tested and at least 50 percent mortality was observed)	–	–
COC1C(C)OC(ON=Cc2ccc(-c3ccn(-c4ccc(C(C)(C)C)cc4)n3)cc2)C(OC)C1OC (stereo not drawn) [Compound 11]	B (either (1) the compound was tested and less than 50 percent mortality was observed or (2) the compound was not tested)	B (either (1) the compound was tested and less than 50 percent mortality was observed or (2) the compound was not tested)	A (the compound was tested and at least 50 percent mortality was observed)	–	–
COC1C(C)OC(ON=Cc2ccc(-c3ccn(-c4ccc(OC(F)(F)F)cc4)n3)cc2)C(OC)C1OC (stereo not drawn) [Compound 12]	B (either (1) the compound was tested and less than 50 percent mortality was observed or (2) the compound was not tested)	B (either (1) the compound was tested and less than 50 percent mortality was observed or (2) the compound was not tested)	A (the compound was tested and at least 50 percent mortality was observed)	–	–
